The results in this text go back to patent publication US8563714B2, “Bridged spiro [2.4] heptane derivatives as ALX receptor and/or FPRL2 agonists” (Actelion Pharmaceuticals Ltd., priority 2009, dated 2013).

Broadly, the EC50 is the concentration giving half of the maximal effect.

SMILES strings stand for the structures.

In one assay the target is T1, human ALX receptor (Homo sapiens, UniProt P25090).
T1 construct: expressed in transfected cells; host or cells: HEK293 (HEK293-hALXR-Gα16)
T1 sequence (P25090 1-351): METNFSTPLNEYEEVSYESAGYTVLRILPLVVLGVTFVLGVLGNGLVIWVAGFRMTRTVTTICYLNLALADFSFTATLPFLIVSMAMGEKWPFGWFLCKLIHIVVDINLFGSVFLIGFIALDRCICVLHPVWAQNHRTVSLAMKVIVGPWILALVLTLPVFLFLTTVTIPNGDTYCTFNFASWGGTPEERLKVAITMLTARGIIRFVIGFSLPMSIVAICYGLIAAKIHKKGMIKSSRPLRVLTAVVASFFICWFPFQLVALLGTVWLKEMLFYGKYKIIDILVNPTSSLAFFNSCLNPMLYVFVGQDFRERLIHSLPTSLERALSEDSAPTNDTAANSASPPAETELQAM
Briefly: Intracellular calcium measurements (FLIPR), agonistic activity in HEK293-hALXR-Gα16 cells. The following applies: Fluo-4 calcium FLIPR, normalized to WKYMVm 10 nM. The format is cell-based. Put shortly: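 HEK293 cells expressing hALXR and Gα16 were loaded with 1 μM Fluo-4 AM and 20 mM HEPES for 60 min at 37°C, then exposed to serially diluted compound. FLIPR fluorescence was read at ex 488/em 540 nm. Baseline-subtracted peak responses were normalized to 10 nM WKYMVm.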
(Calcium assays in cells follow changes in intracellular calcium, usually with a dye or a luminescent sensor.)

For another assay, the target named is T2, human FPRL2 (Homo sapiens, UniProt P25089).
T2 construct: expressed in transfected cells; host or cells: HEK293 (HEK293-hFPRL2-Gα16)
T2 sequence (P25089 1-353): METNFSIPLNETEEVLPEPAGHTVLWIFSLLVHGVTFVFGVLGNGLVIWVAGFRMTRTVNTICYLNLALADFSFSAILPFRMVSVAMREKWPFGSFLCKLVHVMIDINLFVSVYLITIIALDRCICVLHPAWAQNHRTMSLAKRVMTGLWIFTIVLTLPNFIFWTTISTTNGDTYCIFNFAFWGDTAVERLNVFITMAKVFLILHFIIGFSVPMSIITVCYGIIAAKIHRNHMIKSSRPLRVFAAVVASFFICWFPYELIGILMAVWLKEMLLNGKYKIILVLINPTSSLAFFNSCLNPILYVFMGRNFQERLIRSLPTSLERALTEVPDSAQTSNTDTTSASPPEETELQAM
Briefly: Intracellular calcium measurements (FLIPR), agonistic activity in HEK293-hFPRL2-Gα16 cells. Type of assay: cell-based. The following applies: Fluo-4 calcium FLIPR, normalized to GLY14-Humanin 100 nM. Put shortly:
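Peak values after baseline subtraction are expressed relative to 100 nM Gly14-Humanin; compounds diluted in assay buffer from 10 mM DMSO stocks.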

For the compound `CC(C)(C)OC(=O)NCCCCCNC(=O)[C@H]1[C@H](C(=O)Nc2ccc(Br)cc2)[C@@H]2C=C[C@H]1C21CC1` (racemic) [Example 68, (5R*)—N^5-(4-Bromophenyl)-(6R*)—N^6-(5-tert-butoxycarbonyl-amino-pentyl)-(4S*,7R*)-[4,7-ethenylene-spiro[2.4]heptane]-5,6-dicarboxamide], the figures for the EC50 at human ALX receptor and on human FPRL2 were 27 nM and 2170 nM, respectively.

For the compound `Cc1ccc(NC(=O)[C@H]2[C@H](C(=O)NCCCCN3CCCC3)[C@H]3C=C[C@@H]2C32CC2)nc1` (racemic) [Example 121, (5R*)—N^5-(5-Methyl-pyridin-2-yl)-(6R*)—N^6-(4-pyrrolidin-1-yl-butyl)-(4S*,7R*)-[4,7-ethenylene-spiro[2.4]heptane]-5,6-dicarboxamide], the EC50 on human ALX receptor was determined as 95 nM; on human FPRL2, 454 nM.

On to `CN1CCN(CCCCNC(=O)[C@H]2[C@H](C(=O)Nc3ccc(Br)cc3)[C@@H]3C=C[C@H]2C32CC2)CC1` [Example 213, (5R)—N^5-(4-Bromophenyl)-(6R)—N^6-(4-(4-methyl-piperazin-1-yl)butyl)-(4S,7R)-[4,7-ethenylene-spiro[2.4]heptane]-5,6-dicarboxamide], for which the figures for the EC50 on human ALX receptor and at human FPRL2 were 4.1 nM and 16 nM, respectively.

With `N#CCNC(=O)[C@H]1[C@H](C(=O)Nc2ccc(Br)cc2)[C@@H]2C=C[C@H]1C21CC1` (racemic) [Example 36, (5R*)—N^5-(4-Bromophenyl)-(6R*)—N^6-(cyano-methyl)-(4S*,7R*)-[4,7-ethenylene-spiro[2.4]heptane]-5,6-dicarboxamide], the EC50 came to 6.7 nM on human ALX receptor and 11500 nM on human FPRL2.

For `CC(=O)c1csc(CNC(=O)[C@H]2[C@H](C(=O)NCCCN3CCN(C)CC3)[C@H]3C=C[C@@H]2C32CC2)n1` (racemic) [Example 268, (5R*)—N^5-(4-Acetyl-thiazol-2-yl-methyl)-(6R*)—N^6-(3-(4-methylpiperazin-1-yl)-propyl)-(4S*,7R*)-[4,7-ethenylene-spiro[2.4]heptane]-5,6-dicarboxamide], the EC50 on human ALX receptor is 477 nM; at human FPRL2, 22900 nM.

Consider `O=C(NCCOCCN1CCCC1)[C@H]1[C@H](C(=O)Nc2ccc(Br)cc2)[C@@H]2C=C[C@H]1C21CC1` [Example 215, (5R)—N^5-(4-Bromophenyl)-(6R)—N^6-(2-(2-(pyrrolidin-1-yl)ethoxy)ethyl)-(4S,7R)-[4,7-ethenylene-spiro[2.4]heptane]-5,6-dicarboxamide], for which the EC50 was found to be 0.72 nM at human ALX receptor and 95 nM on human FPRL2.

In the case of `O=C(NCCCCN1CCCC1)[C@H]1[C@H](C(=O)Nc2ncc(Br)s2)[C@@H]2C=C[C@H]1C21CC1` [Example 225, (5R)—N^5-(5-Bromo-thiazol-2-yl)-(6R)—N^6-(4-pyrrolidin-1-yl-butyl)-(4S,7R)-[4,7-ethenylene-spiro[2.4]heptane]-5,6-dicarboxamide], the results for the EC50 on human ALX receptor and at human FPRL2 were 6.4 nM and 143 nM, respectively.

Regarding `O=C(NCCF)[C@H]1[C@H](C(=O)Nc2ccc(Br)cc2)[C@@H]2C=C[C@H]1C21CC1` (racemic) [Example 20, (5R*)—N^5-(4-Bromophenyl)-(6R*)—N^6-(2-fluoro-ethyl)-(4S*,7R*)-[4,7-ethenylene-spiro[2.4]heptane]-5,6-dicarboxamide], the half-maximal effective concentration (EC50) came out at 2.7 nM on human ALX receptor and 2860 nM on human FPRL2.

On to `O=C(Nc1ccc(Br)cc1)C1C(C(=O)NC2CCC(CN3CCCC3)CC2)C2C=CC1C21CC1` (single isomer, unassigned) [Example 218], for which the EC50 on human ALX receptor stood at 2.1 nM; at human FPRL2, 356 nM.

As to `O=C(NCCCCN1CCCC1)[C@H]1[C@H](C(=O)NCCc2ccc3c(c2)OCO3)[C@@H]2C=C[C@H]1C21CC1` (racemic) [Example 383, (5R*)—N^5-(2-(Benzo[d][1,3]dioxol-5-yl)ethyl)-(6R*)—N^6-(4-pyrrolidino-butyl)-(4S*,7R*)-[4,7-ethenylene-spiro[2.4]heptane]-5,6-dicarboxamide], the EC50 on human ALX receptor is 7680 nM; on human FPRL2 it was 29 nM.

Take `O=C(NCCCCN1CCCC1)[C@H]1[C@H](C(=O)Nc2nnc(C(F)(F)F)s2)[C@@H]2C=C[C@H]1C21CC1` (racemic) [Example 257, (5R*)—N^5-(5-Trifluoromethyl-1,3,4-thiadiazol-2-yl)-(6R*)—N^6-(4-pyrrolidin-1-yl-butyl)-(4S*,7R*)-[4,7-ethenylene-spiro[2.4]heptane]-5,6-dicarboxamide]: the EC50 at human ALX receptor came to 6010 nM; at human FPRL2 it was 167 nM.

In the case of `NCCCCCNC(=O)C1C(C(=O)Nc2ccc(Br)cc2)C2C=CC1C21CC1` (stereo not drawn) [Example 1, (5R*)—N^5-(4-Bromophenyl)-(6R*)—N^6-(5-amino-pentyl)-(4S*,7R*)-[4,7-ethenylene-spiro[2.4]heptane]-5,6-dicarboxamide], the values for the EC50 on human ALX receptor and on human FPRL2 were 0.16 nM and 571 nM, respectively.

Take `CCOCCCNC(=O)[C@H]1[C@H](C(=O)Nc2ccc(Br)cc2)[C@@H]2C=C[C@H]1C21CC1` (racemic) [Example 17, (5R*)—N^5-(4-Bromophenyl)-(6R*)—N^6-(3-ethoxy-propyl)-(4S*,7R*)-[4,7-ethenylene-spiro[2.4]heptane]-5,6-dicarboxamide]: the figures for the EC50 on human ALX receptor and on human FPRL2 were 1.8 nM and 2010 nM, respectively.

Turning to `CCN1CCCC1CNC(=O)C1C(C(=O)Nc2ccc(Br)cc2)C2C=CC1C21CC1` (mixture of isomers) [Example 54, (5R*)—N^5-(4-Bromophenyl)-(6R*)—N^6-[(1-ethyl-pyrrolidin-2-yl)-methyl]-(4S*,7R*)-[4,7-ethenylene-spiro[2.4]heptane]-5,6-dicarboxamide], the EC50 at human ALX receptor was found to be 16 nM; on human FPRL2, 2590 nM.

For `NC(=O)CCNC(=O)[C@H]1[C@H](C(=O)Nc2ccc(Cl)nc2)[C@@H]2CC[C@H]1C21CC1` [Example 298, (5R)—N^5-(2-Chloro-pyridin-5-yl)-(6R)—N^6-(3-amino-3-oxopropyl)-(4S,7R)-[4,7-ethylene-spiro[2.4]heptane]-5,6-dicarboxamide], the EC50 on human ALX receptor amounted to 24 nM; on human FPRL2, 4070 nM.

Consider `O=C(NCCCCN1CCCC1)[C@H]1[C@H](C(=O)NCc2ccc(Br)cc2F)[C@@H]2CC[C@H]1C21CC1` [Example 318, (5R)—N^5-(4-Bromo-2-fluorophenyl-methyl)-(6R)—N^6-(4-pyrrolidino-butyl)-(4S,7R)-[4,7-ethylene-spiro[2.4]heptane]-5,6-dicarboxamide], for which the EC50 came out at 13 nM on human ALX receptor and 18 nM on human FPRL2.

With `O=C(NC1CCNCC1)[C@H]1[C@H](C(=O)Nc2ncc(Br)s2)[C@@H]2CC[C@H]1C21CC1` [Example 330, (5R)—N^5-(5-Bromo-thiazol-2-yl)-(6R)—N^6-(piperidin-4-yl)-(4S,7R)-[4,7-ethylene-spiro[2.4]heptane]-5,6-dicarboxamide], the EC50 on human ALX receptor worked out at 24 nM; at human FPRL2, 4420 nM.

In the case of `CC(C)CCNC(=O)[C@H]1[C@H](C(=O)NCCCCN2CCCC2)[C@H]2C=C[C@@H]1C21CC1` (racemic) [Example 135, (5R*)—N^5-(3-Methyl-butyl)-(6R*)—N^6-(4-pyrrolidin-1-yl-butyl)-(4S*,7R*)-[4,7-ethenylene-spiro[2.4]heptane]-5,6-dicarboxamide], the EC50 was determined as 352 nM on human ALX receptor and 224 nM on human FPRL2.

As for `NC(=O)CCNC(=O)[C@H]1[C@H](C(=O)Nc2ccc(Br)nc2)[C@@H]2CC[C@H]1C21CC1` [Example 278, (5R)—N^5-(2-Bromopyrid-5-yl)-(6R)—N^6-(3-amino-3-oxopropyl)-(4S,7R)-[4,7-ethylene-spiro[2.4]heptane]-5,6-dicarboxamide], the figures for the EC50 at human ALX receptor and on human FPRL2 were 7.9 nM and above 25000 nM, respectively.

For `Cc1cc(Br)ccc1NC(=O)[C@H]1[C@H](C(=O)NCCCCN2CCCC2)[C@H]2C=C[C@@H]1C21CC1` [Example 296, (5R)—N^5-(4-Bromo-2-methylphenyl)-(6R)—N^6-(4-pyrrolidino-butyl)-(4S,7R)-[4,7-ethenylene-spiro[2.4]heptane]-5,6-dicarboxamide], the values for the EC50 on human ALX receptor and at human FPRL2 were 275 nM and 193 nM, respectively.

On to `O=C(NCCN1CCOCC1)[C@H]1[C@H](C(=O)Nc2ccc(Br)cc2)[C@@H]2C=C[C@H]1C21CC1` (racemic) [Example 80, (5R*)—N^5-(4-Bromophenyl)-(6R*)—N^6-(2-morpholino-ethyl)-(4S*,7R*)-[4,7-ethenylene-spiro[2.4]heptane]-5,6-dicarboxamide], for which the half-maximal effective concentration (EC50) amounted to 97 nM on human ALX receptor and 7870 nM on human FPRL2.
